≈ marks a conversion by molar mass, not a printed value.
What was measured:
Format in all cases: cell-based
[1] = test system: broad spectrum of microorganisms including gram positive bacteria, gram negative bacteria and molds; experiment: Antimicrobial activity, general statement in the text
Aspergillus niger [2] = experiment: General antimicrobial activity, 5-fold serial dilution test in agar (MIC); settings: 168 h, 28° C., seven days, growth only at lower concentration of range, read-out: minimum inhibitory concentration (MIC), F1
Procedure: (§1) General antibacterial and antifungal activity was evaluated by a 5-fold serial dilution test in agar. In this test, compounds were prepared as 6% solutions in dimethylformamide or ethanol. The 6% solution was then 5-fold serially diluted in test tubes to give the desired concentrations when mixed with agar and poured into sterile Petri dishes. Tryptone glucose extract agar was used for the bacterial testing; mildew glucose agar for the fungal testing. The bacterial plates were spot inoculated with 24-hour nutrient broth cultures and incubated at 37° C. for 48 hours. The fungal plates were spot inoculated with spore suspensions and incubated at 28° C. for seven days. At the end of the incubation periods, all plates were examined for growth. The minimum inhibitory concentration (MIC) for each organism is expressed in Table I. In the ranges presented, growth is observed only at the lower concentration.
(§2) The activity is presented in Tabular Form (Table I) using the following key.

Pseudomonas aeruginosa [3] = experiment: as above; settings: 37° C., 48 hours, growth only at lower concentration of range, read-out: minimum inhibitory concentration (MIC), B3
Procedure: as §1, §2

Aspergillus oryzae = experiment: as above; settings: 168 h, 28° C., seven days, growth only at lower concentration of range, read-out: minimum inhibitory concentration (MIC), F2
Procedure: as §1, §2

Proteus vulgaris = experiment: as above; settings: 37° C., 48 hours, growth only at lower concentration of range, read-out: minimum inhibitory concentration (MIC), B4
Procedure: as §1, §2

Bacillus subtilis = experiment: as above; settings: 37° C., 48 hours, growth only at lower concentration of range, read-out: minimum inhibitory concentration (MIC), B5
Procedure: as §1, §2

Penicillium piscarium = experiment: as above; settings: 168 h, 28° C., seven days, growth only at lower concentration of range, read-out: minimum inhibitory concentration (MIC), F3
Procedure: as §1, §2

Escherichia coli = experiment: as above; settings: 37° C., 48 hours, growth only at lower concentration of range, read-out: minimum inhibitory concentration (MIC), B2
Procedure: as §1, §2

Aureobasidium pullulans = experiment: as above; settings: 168 h, 28° C., seven days, growth only at lower concentration of range, read-out: minimum inhibitory concentration (MIC), F4
Procedure: as §1, §2

Staphylococcus aureus = experiment: as above; settings: 37° C., 48 hours, growth only at lower concentration of range, read-out: minimum inhibitory concentration (MIC), B1
Procedure: as §1, §2

Aspergillus niger [4] = experiment: Utility as a cosmetic preservative (cosmetic lotion); settings: weekly reinoculation
Procedure: (§3) The 2-Chloro-3-oxobutyramide derivatives are effective cosmetic preservatives. Two-fold serial dilutions of 6% solutions of the 2-haloacetoacetic acid derivatives in dimethylformamide were added to a cosmetic lotion of the following formulation: |Stearic acid 1.4 g |Arlacel 60 (sorbitan |monostearate) 0.7 g |Tween 20 Polyoxethylene |(20) sorbitan |monostearate 1.6 g |Distilled water 94.0 g The lotions were inoculated with both Pseudomonas aeruginosa and Aspergillus niger and incubated at 28° C. At weekly intervals, the lotions were examined for microorganisms by conventional streak-plate methods or by macroscopic observation. The lotions were then reinoculated with the test organisms and reincubated.

Pseudomonas aeruginosa [5] = experiment: as above; settings: weekly reinoculation
Procedure: as §3

Pseudomonas aeruginosa [6] = experiment: Utility in water and oil emulsions (3.3% cutting oil emulsions); settings: 28° C., weekly reinoculation, read-out: Minimum Inhibitory Concentration Range
Procedure: The utility of the 2-chloro-3-oxobutyramide derivatives in water and oil emulsions is illustrated below using a commercially available cutting oil. In running these tests, two-fold serial dilutions of 6% solutions of the compound in dimethylformamide was added to 3.3% cutting oil emulsions. The emulsions were prepared by diluting with water a commercially available cutting oil concentrate. The emulsions were inoculated with a culture of Pseudomonas aeruginosa and incubated at 28° C. on a rotary shaker. At weekly intervals, the emulsions were examined for bacteria by conventional streak-plate methods. The emulsions were then reinoculated with Pseudomonas aeruginosa and reincubated. […] indicate the activity range for that compound.

Structure (SMILES): CC(=O)C(Cl)C(=O)N(C)C (stereo not shown) [R1=CH3, R2=CH3, 2-chloro-N,N-dimethyl-3-oxobutyramide]
- antimicrobial activity (in words) [1]: high level of activity
- MIC (Aspergillus niger [2]): 384 to 1920 µg/mL (≈ 2350 to 11700 µM)
- MIC (Pseudomonas aeruginosa [3]): 384 to 1920 µg/mL (≈ 2350 to 11700 µM)
- MIC (Aspergillus oryzae): 384 to 1920 µg/mL (≈ 2350 to 11700 µM)
- MIC (Proteus vulgaris): 76.8 to 384 µg/mL (≈ 469 to 2350 µM)
- MIC (Bacillus subtilis): 384 to 1920 µg/mL (≈ 2350 to 11700 µM)
- MIC (Penicillium piscarium): 384 to 1920 µg/mL (≈ 2350 to 11700 µM)
- MIC (Escherichia coli): 76.8 to 384 µg/mL (≈ 469 to 2350 µM)
- MIC (Aureobasidium pullulans): 76.8 to 384 µg/mL (≈ 469 to 2350 µM)
- MIC (Staphylococcus aureus): 384 to 1920 µg/mL (≈ 2350 to 11700 µM)
- minimum inhibitory concentration effective in preventing microbial growth (Aspergillus niger [4]; Week 1, 28° C.): 1 (1000-2000 mcg/gm)
- minimum inhibitory concentration effective in preventing microbial growth (Aspergillus niger [4]; Week 2, 28° C.): 1 (1000-2000 mcg/gm)
- minimum inhibitory concentration effective in preventing microbial growth (Aspergillus niger [4]; Week 3, 28° C.): 1 (1000-2000 mcg/gm)
- minimum inhibitory concentration effective in preventing microbial growth (Aspergillus niger [4]; Week 4, 28° C.): 1 (1000-2000 mcg/gm)
- minimum inhibitory concentration effective in preventing microbial growth (Pseudomonas aeruginosa [5]; Week 1, 28° C.): 2 (500-1000 mcg/gm)
- minimum inhibitory concentration effective in preventing microbial growth (Pseudomonas aeruginosa [5]; Week 2, 28° C.): 2 (500-1000 mcg/gm)
- minimum inhibitory concentration effective in preventing microbial growth (Pseudomonas aeruginosa [5]; Week 3, 28° C.): 2 (500-1000 mcg/gm)
- minimum inhibitory concentration effective in preventing microbial growth (Pseudomonas aeruginosa [5]; Week 4, 28° C.): 2 (500-1000 mcg/gm)
- MIC (Pseudomonas aeruginosa [6]; Week 1, 3.3% cutting oil emulsion): 125 to 500 µg/mL (≈ 764 to 3060 µM)
- MIC (Pseudomonas aeruginosa [6]; Week 2, 3.3% cutting oil emulsion): 250 to 500 µg/mL (≈ 1530 to 3060 µM)
- MIC (Pseudomonas aeruginosa [6]; Week 3, 3.3% cutting oil emulsion): 250 to 500 µg/mL (≈ 1530 to 3060 µM)
- MIC (Pseudomonas aeruginosa [6]; Week 4, 3.3% cutting oil emulsion): 250 to 500 µg/mL (≈ 1530 to 3060 µM)
